3 compounds from patent US5681826A, “Saccharide composition with reduced reducibility, and preparation and uses thereof” (Kabushiki Kaisha Hayashibara Seibutsu Kagaku Kenkyujo, priority 1994, dated 1997) can be followed below.

SMILES strings stand for the structures. A value given as a limit tells only on which side of the number the result lay.

For one data set, the system named is β-amylase. In words: Hydrolysis by β-amylase. The format is biochemical.
Data set [1] is described as follows: Reducing power on the Somogyi-Nelson's method expressed by DE. The settings on record: d.s.b. The format is physicochemical. The procedure: The reducing powders of these novel high-purity saccharides were determined on the Somogyi-Nelson's method and expressed by DE.
In another data set the test system is α-amylase. In words: Hydrolysis by α-amylase derived from pig pancreas. The class given is in vitro ADME. The conditions noted are these: for Saccharide composition of hydrolysate by α-amylase: G1 (glucose) / Saccharide composition of hydrolysate by α-amylase: G2 (maltose) / Saccharide composition of hydrolysate by α-amylase: G3 (maltotriose) / Saccharide composition of hydrolysate by α-amylase: P I / Saccharide composition of hydrolysate by α-amylase: P II: one unit, pH 6.9, 37°C., 18 hours. The procedure: (§1) The enzymatic reaction with the α-amylase was as follows: Dissolve 10 mg of a substrate in one ml of 50 mM phosphate buffer (pH 6.9), mix the resultant solution with one unit of the α-amylase, and incubate the resultant mixture at 37° C. for 18 hours. The enzymatic reaction with the α-glucosidase was conducted under the same conditions as in the case of α-amylase except that 50 mM acetate buffer (pH 4.0) was used as a buffer. The enzymatic reaction using the rat intestinal acetone powder was carried out under the same conditions as in the case of α-amylase except that 50 mM maleate buffer (pH 6.0) was used as a buffer. The saccharide compositions obtained by the α-amylase, α-glucosidase and rat intestinal acetone powder are respectively in Tables 6, 7 and 8.

A short description of data set [2]: Maillard reaction with glycine, absorbance at 480 nm. The settings on record: for Coloration degree (480 nm): one % glycine, 10% saccharide, pH 7.0, 100°C., 90 min, 1-cm cell. The class given is physicochemical. As for the experimental part:
A solution, containing one % glycine and 10% of a saccharide preparation PI, P II, P III, P IV or P V in Experiment 4 and 50 mM phosphate buffer (pH 7.0), was kept at 100° C. for 90 min, followed by cooling the resultant solution, and determining for absorbance at a wave length of 480 nm in a 1-cm cell. As a control, maltotriose, maltotetraose, maltopentaose, maltohexaose and maltoheptaose, as a material for the saccharide preparations, were similarly treated as above, and measured for absorbance at a wave length of 480 nm.
A solution, containing one % of glycine, 10% of a high-purity trehalose preparation with a purity of 99.5%, d.s.b., obtained by the method in Experiment 17, and 50 mM phosphate buffer (pH 7.0), was kept at 100° C. for 90 min, followed by cooling the resultant solution and determining the absorbance at a wave length of 480 nm in a 1-cm cell. As a control, glucose and maltose were similarly treated as above, and the resultants were determined for absorbance at a wave length of 480 nm.

Data set [3] has as its target T1, trehalose-releasing enzyme (Rhizobium sp. M-11, UniProt Q53238).
T1 construct: M-11 culture
T1 sequence (Q53238 1-596): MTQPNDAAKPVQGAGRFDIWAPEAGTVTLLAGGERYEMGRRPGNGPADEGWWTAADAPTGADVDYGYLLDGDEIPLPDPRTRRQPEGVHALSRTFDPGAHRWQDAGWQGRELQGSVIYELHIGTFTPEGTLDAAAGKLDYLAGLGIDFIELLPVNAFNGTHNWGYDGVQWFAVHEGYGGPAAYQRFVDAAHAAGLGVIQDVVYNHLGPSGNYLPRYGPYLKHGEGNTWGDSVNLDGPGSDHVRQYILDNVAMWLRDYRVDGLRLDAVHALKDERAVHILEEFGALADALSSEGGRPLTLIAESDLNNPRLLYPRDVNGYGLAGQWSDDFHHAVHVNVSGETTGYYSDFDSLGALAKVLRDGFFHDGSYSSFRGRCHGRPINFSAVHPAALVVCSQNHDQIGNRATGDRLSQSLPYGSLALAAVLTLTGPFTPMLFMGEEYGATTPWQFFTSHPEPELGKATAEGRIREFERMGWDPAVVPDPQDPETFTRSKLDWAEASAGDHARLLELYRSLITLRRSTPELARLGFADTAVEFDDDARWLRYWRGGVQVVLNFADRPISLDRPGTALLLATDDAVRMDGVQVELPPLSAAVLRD
In words: Action of trehalose-releasing enzyme on α-glycosyltrehalose and maltooligosaccharides (Table 13). The settings on record: 20% substrate, 2 units/g, 40°C., pH 7.0, 48 hours; label = substrate. The format is biochemical. The procedure:
An aqueous solution containing 20%, d.s.b., of one of the above 5 non-reducing saccharide preparations, namely α-glycosyltrehalose preparations, was prepared, followed by mixing it with 2 units/g substrate, d.s.b., of the purified trehalose-releasing enzyme obtained in Experiment 15, and subjecting the resultant to an enzymatic reaction at 40° C. and pH 7.0 for 48 hours. The resultant each reaction mixture was desalted, and analyzed for saccharide composition on HPLC using "WAKOBEADS WB-T-330 column", a column of Wako Pure Chemical Industries Ltd., Tokyo, Japan. As a control, a fresh preparation of the same trehalose-releasing enzyme was allowed to act on maltotriose, maltotetraose, maltopentaose, maltohexaose or maltoheptaose, and the resultant each reaction mixture was analyzed for saccharide composition on HPLC.

For the next data set, the system named is α-glucosidase. In words: Hydrolysis by α-glucosidase derived from rice. The class given is biochemical. The conditions noted are these: pH 4.0, 37°C., 18 hours. The procedure:
as §1

For a further data set, the system named is glucoamylase. In words: Enzymatic hydrolysis by glucoamylase. The class given is biochemical. The conditions noted are these: for Glucose / Molecular ratio (Glucose/Trehalose) / Trehalose: one unit glucoamylase, pH 4.5, 40°C., 6 hours. The procedure: Fifty mg aliquots of non-reducing saccharide preparations P I, P II, P III, P IV and P V in Experiment 4 were respectively dissolved in one ml of 50 mM acetate buffer (pH 4.5), admixed with one unit of glucoamylase commercialized by Seikagaku-Kogyo Co., Ltd., Tokyo, Japan, to effect enzymatic hydrolysis at 40° C. for 6 hours. HPLC analysis only detected glucose and trehalose in all resultant mixtures. The percentages and the molecular ratios of glucose to trehalose in each saccharide are in Table 5.

The nature of data set [4]: Hydrolysis by rat intestinal acetone powder. The class given is in vitro ADME. The settings on record: pH 6.0, 37°C., 18 hours. As for the experimental part: as §1
Data set [5] can be described thus: Acute toxicity test (Experiment 8). The settings on record: mouse, in vivo, po. An excerpt:
(§2) By using 7-week old dd-strain mice, the non-reducing saccharide preparation P I, P II, P III, P IV or P V was orally administered to the mice for acute toxicity test.

For the next data set, the system named is mice. In words: Acute toxicity test (Experiment 8). The settings on record: oral, highest possible doses.
From the text: as §2

For the compound `OC[C@H]1O[C@H](O[C@H]2O[C@H](CO)[C@@H](O[C@H]3O[C@H](CO)[C@@H](O)[C@H](O)[C@H]3O)[C@H](O)[C@H]2O)[C@H](O)[C@@H](O)[C@@H]1O` [P I, α-glucosyltrehalose], the “Hydrolysis by β-amylase” value in the data set on β-amylase is reported as “not hydrolyzed”. Further, in data set [1], the “DE (reducing power)” value came out at 0.83. Besides, in the data set with α-amylase, the “Hydrolysis by α-amylase” value is “not substantially hydrolyzed”, the “Saccharide composition of hydrolysate by α-amylase: G1 (glucose)” value (from here on “Saccharide composition … (glucose)”) came to 0, the “Saccharide composition of hydrolysate by α-amylase: G2 (maltose)” value (shortened to “Saccharide composition … (maltose)”) is reported as 0.4 and the “Saccharide composition of hydrolysate by α-amylase: G3 (maltotriose)” value (“Saccharide composition … (maltotriose)” below) is reported as 2.3. Besides, in the data set on α-amylase, the “Saccharide composition of hydrolysate by α-amylase: P I” value was 97.3 and the “Saccharide composition of hydrolysate by α-amylase: P II” value (from here on “Saccharide composition … P II”) worked out at 0. Moreover, in data set [2], the “Coloration degree relative to corresponding material maltooligosaccharides” value is recorded as 3-6% and the “Coloration degree (480 nm)” value is 0.027. In data set [3], the “Percentage of reducing saccharide released (glucose, maltose, maltotriose, maltotetraose or maltopentaose)” value was 6.5% and the “Percentage of trehalose released” value amounted to 17.5%. In addition, in the data set with α-glucosidase, the “Saccharide composition of hydrolysate by α-glucosidase: Glucose” value is reported as 36.5%, the “Saccharide composition of hydrolysate by α-glucosidase: Other saccharides” value is 0.5% and the “Saccharide composition of hydrolysate by α-glucosidase: Trehalose” value came to 63.0%. In the data set with glucoamylase, the “Hydrolysis by glucoamylase” value was “hydrolyzed into one glucose molecule and one trehalose molecule”; the Glucose is on record as 36.2%; the “Molecular ratio (Glucose/Trehalose)” value stood at 1.07; the Trehalose is given as 63.8%. In data set [4], the “Saccharide composition of hydrolysate by rat intestinal acetone powder: Glucose” value came to 37.2%, the “Saccharide composition of hydrolysate by rat intestinal acetone powder: Other saccharides” value stood at 0.4% and the “Saccharide composition of hydrolysate by rat intestinal acetone powder: Trehalose” value is recorded as 62.4%. In [5], this compound had an LD50 of at least 50000 mg/kg. For the same compound, the Mortality entry with mice is recorded as “no mouse died”.
As to `OC[C@H]1O[C@H](O[C@H]2O[C@H](CO)[C@@H](O[C@H]3O[C@H](CO)[C@@H](O[C@H]4O[C@H](CO)[C@@H](O[C@H]5O[C@H](CO)[C@@H](O[C@H]6O[C@H](CO)[C@@H](O)[C@H](O)[C@H]6O)[C@H](O)[C@H]5O)[C@H](O)[C@H]4O)[C@H](O)[C@H]3O)[C@H](O)[C@H]2O)[C@H](O)[C@@H](O)[C@@H]1O` [P IV, α-maltotetraosyltrehalose], the “Hydrolysis by β-amylase” value with β-amylase is “one maltose molecule and one P II molecule”. The “DE (reducing power)” value in [1] was determined as 0.27. In the data set with α-amylase, the “Hydrolysis by α-amylase” value is “hydrolyzed by the α-amylase into lower molecular weight oligosaccharides”, the “Saccharide composition … (glucose)” value is listed as 1.6, the “Saccharide composition … (maltose)” value is reported as 7.5 and the “Saccharide composition … (maltotriose)” value was 40.4. In the data set on α-amylase, the “Saccharide composition of hydrolysate by α-amylase: P I” value turned out to be 47.2 and the “Saccharide composition … P II” value turned out to be 3.3. For the same compound, in [2], the “Coloration degree relative to corresponding material maltooligosaccharides” value was 3-6% and the “Coloration degree (480 nm)” value was determined as 0.016. Also, in [3], the “Percentage of reducing saccharide released (glucose, maltose, maltotriose, maltotetraose or maltopentaose)” value amounted to 65.5% and the “Percentage of trehalose released” value is given as 34.2%. Also, in the data set on α-glucosidase, the “Saccharide composition of hydrolysate by α-glucosidase: Glucose” value turned out to be 69.5%, the “Saccharide composition of hydrolysate by α-glucosidase: Other saccharides” value was 0.3% and the “Saccharide composition of hydrolysate by α-glucosidase: Trehalose” value is on record as 30.2%. In the data set on glucoamylase, the “Hydrolysis by glucoamylase” value was “hydrolyzed into 4 glucose molecules and one trehalose molecule”; the Glucose was 68.3%; the “Molecular ratio (Glucose/Trehalose)” value came out at 4.09; the Trehalose was 31.7%. Further, in [4], the “Saccharide composition of hydrolysate by rat intestinal acetone powder: Glucose” value came out at 68.8%, the “Saccharide composition of hydrolysate by rat intestinal acetone powder: Other saccharides” value was 0.4% and the “Saccharide composition of hydrolysate by rat intestinal acetone powder: Trehalose” value was found to be 30.8%. The LD50 in data set [5] was at least 50000 mg/kg. Further, in the data set with mice, the Mortality entry is “no mouse died”.
`OC[C@H]1O[C@H](O[C@H]2O[C@H](CO)[C@@H](O[C@H]3O[C@H](CO)[C@@H](O[C@H]4O[C@H](CO)[C@@H](O)[C@H](O)[C@H]4O)[C@H](O)[C@H]3O)[C@H](O)[C@H]2O)[C@H](O)[C@@H](O)[C@@H]1O` [P II, α-maltosyltrehalose]: in the data set with β-amylase, the “Hydrolysis by β-amylase” value is “not hydrolyzed”. In addition, the “DE (reducing power)” value in data set [1] is listed as 0.35. Moreover, in the data set on α-amylase, the “Hydrolysis by α-amylase” value was “not substantially hydrolyzed”, the “Saccharide composition … (glucose)” value came out at 0, the “Saccharide composition … (maltose)” value is given as 0.8 and the “Saccharide composition … (maltotriose)” value is listed as 0.4. In addition, in the data set on α-amylase, the “Saccharide composition of hydrolysate by α-amylase: P I” value was 0 and the “Saccharide composition … P II” value turned out to be 98.8. For the same compound, in data set [2], the “Coloration degree relative to corresponding material maltooligosaccharides” value is 3-6% and the “Coloration degree (480 nm)” value came out at 0.018. Further, in [3], the “Percentage of reducing saccharide released (glucose, maltose, maltotriose, maltotetraose or maltopentaose)” value amounted to 44.4% and the “Percentage of trehalose released” value stood at 44.3%. In the data set on α-glucosidase, the “Saccharide composition of hydrolysate by α-glucosidase: Glucose” value amounted to 52.1%, the “Saccharide composition of hydrolysate by α-glucosidase: Other saccharides” value is 0.3% and the “Saccharide composition of hydrolysate by α-glucosidase: Trehalose” value is listed as 47.6%. In the data set with glucoamylase, the “Hydrolysis by glucoamylase” value was “hydrolyzed into 2 glucose molecules and one trehalose molecule”; the Glucose is on record as 52.0%; the “Molecular ratio (Glucose/Trehalose)” value came out at 2.06; the Trehalose turned out to be 48.0%. In addition, in [4], the “Saccharide composition of hydrolysate by rat intestinal acetone powder: Glucose” value turned out to be 52.5%, the “Saccharide composition of hydrolysate by rat intestinal acetone powder: Other saccharides” value stood at 0.4% and the “Saccharide composition of hydrolysate by rat intestinal acetone powder: Trehalose” value was found to be 47.1%. In [5], this compound displayed an LD50 of at least 50000 mg/kg. Moreover, the Mortality result in the data set on mice was “no mouse died”.
